In patent US20250110116A1, “COMPOSITIONS AND METHODS FOR PRODUCING HAIR FOLLICLE STEM CELLS” (The Rockefeller University, priority 2023, published 2025):
Entries after “also recorded” stand apart in the source; their conditions may differ. Where two headings read alike, the source gives them in different places.

Key:
[1] = tested on: HFSCs; test: Wound repair with lineage-traced HFSCs, topical treatment; assay type: in vivo, mice
From the text: The recruitment of HFSCs to epidermal repair is a multistep process, involving first the entry of HFSCs into a lineage plasticity state, second the fate switch to an epidermal fate and then later, the rebalancing of stem cell numbers across tissue compartments. Given the need for atRA to drive hair lineage determination, we analyzed whether elevating atRA after injury might diminish the ability of HFSCs to enter a state of lineage plasticity after wounding. To test this, we administered topical atRA immediately after wounding to telogen-phase, lineage marked HFSCs. While entry into the hair cycle proceeded normally after injury, topical atRA led to a stem cell imbalance (FIG. 5 Panel D).
To assess the consequences of promoting lineage plasticity following injury, we placed mice on a vitamin A-deficient diet that depleted the skin of retinol without affecting body mass (FIG. 15 Panel E). In this case, following tissue injury, mobilized HFSCs entered a prolonged stated of dual lineage potential well into the later stages of repair (FIG. 5 Panel D). […] By day 30, vitamin A deficiency also elevated the fraction of stem cells that contributed to the repaired epidermis and diminished the number remaining in the bulge.

[2] = tested on: cultured HFSCs; test: Directed differentiation of cultured HFSCs to HS and IRS lineages (Cux1 reporters, GATA3, HOXC13); assay type: cell-based, mouse; conditions: for hair shaft (HS) differentiation (HOXC13, HS reporter): WNT-BMP co-activated HFSCs
[3] = tested on: HFSCs; test: HFSC growth, survival and colony formation in 3D Matrigel culture; assay type: cell-based, mouse; conditions: for concentration at which maximal rates of cell proliferation were reached: 3D Matrigel culture, standard HFSC media
[4] = tested on: cultured HFSCs; test: HFSC quiescence / bulge identity in culture (Nfatc1, Cxcl14 reporter); assay type: cell-based, mouse
From the text: In vivo, HFSCs can be divided into two populations: those in a more quiescent state found in the bulge and ones primed for activation, located in the ‘hair germ’ (HG) just below the bulge. As BMP6 is produced by the inner bulge and responsible for maintaining HFSCs in their quiescent state (FIG. 2 Panel A), we continued to utilize a described culture system by assessing how these factors impact HFSC activation and fate commitment.
BMPs triggered cell cycle exit (FIG. 9 Panel A).
(§1) ERKi was also excluded because of its known ability to regulate the initiation of hair growth. Both atRA (10 nM-1 μM) and PKCi (0.1-10 μM) were titrated to determine the optimal concentration to reduce lineage plasticity and promote physiological HFSC behavior. […] In contrast, BMP6-mediated Nfatc1 mRNA upregulation (quiescence marker) was maximal at 10 nM. Therefore, the amount of atRA should be modified in HFSC cultures to support the desired cell fate in combination with these and possibly other growth factors.

[5] = tested on: human keratinocytes; test: Human keratinocyte culture under the described conditions, 7 days; assay type: cell-based; conditions: atRA plus PKCi added to B-27 media
From the text: This example relates to FIG. 21. With respect to FIG. 21, to assess the translatability of the described methodology enabling the faithful recapitulation of hair follicle stem cell (HFSC) identity in culture to humans, we introduced the described conditions developed in the mouse to human keratinocytes.

[6] = tested on: Klf5-EGFP; test: Klf5-EGFP lineage plasticity reporter in 3D cultured HFSCs (flow cytometry); assay type: cell-based, mouse; conditions: for reduction of Klf5-EGFP levels: atRA and PKCi tested in combination; for effect on lineage plasticity (Klf5-EGFP levels): screen of small molecule library, serum-free 3D culture; for Klf5-EGFP levels: media modification
[7] = tested on: cultured HFSCs; test: Marker expression in cultured HFSCs (immunofluorescence, immunoblot, qPCR); assay type: cell-based, mouse; conditions: for resolution of lineage plasticity and HFSC behavior: combination of atRA and PKCi, 3D culture
From the text: We first explored these two hits against the backdrop of our more physiological (serum-free) conditions, where SOX9 and KLF5 had already partitioned their expression peripherally and internally within colonies, respectively (FIG. 1 Panel C).
Immunoblot, qPCR and additional immunofluorescence analyses strengthened the evidence that PKCi and atRA resolve lineage plasticity (FIG. 1 Panel D, FIG. S2, Panels C to E).

[8] = tested on: HFSCs; test: Transplantation of precultured HFSCs with dermal fibroblasts onto mouse back skins; assay type: in vivo; conditions: HFSCs precultured in serum-free media primed with either atRA, BMP6 or Rspo
From the text: By overcoming the hurdles to lineage progression in vitro, we challenged the in vivo regenerative potential of the described lineage-specified cell populations. YFP-labeled progenitors from each group were combined with allogenic dermal fibroblasts and transplanted onto mouse back skins.

[9] = tested on: cultured HFSCs; test: Rspo/WNT-mediated HFSC activation in culture (TCF/LEF, Lgr5, EdU); assay type: cell-based, mouse
From the text: In vitro, none of the four WNT-regulating TCF/LEF transcription factors were expressed under standard serum conditions or in serum-free conditions, even with PKCi. […] These HFSC-associated TFs were also stimulated by BMP6, consistent with a raised threshold for activating WNT during quiescence (FIG. 10, Panels A and B). […] Rspo-mediated HFSC proliferation was sensitive to atRA with the greatest cooperative effect seen at 10-fold higher the atRA concentration that had been optimal for quiescence-related features of stemness (FIG. 2 Panel E, FIG. 10 Panel D).
as §1

[10] = tested on: CD34^+ HFSCs; test: Topical treatment of mouse back skin during resting phase of the hair cycle; assay type: in vivo, mice; conditions: telogen
[11] = tested on: hair follicle; test: Topical treatment of mouse back skin at mid-anagen (HF downgrowth)
[12] = daily topical during HF downgrowth

Cc1ccc(C2=CCC(C)(C)c3ccc(C#Cc4ccc(C(=O)O)cc4)cc32)cc1 [AGN193109]
HF downgrowth and epidermal flux following wounding ([1]; topical): reducing HF downgrowth and promoting epidermal upward flux | hair shaft (HS) differentiation (HOXC13, HS reporter) [2]: uniquely promoted | hair shaft (HS) differentiation (HOXC13, HS reporter) ([2]; listed as RARi): primarily increased HOXC13 expression and enhancer epicenter reporter activity for the HS lineage

[Ca+2].[Cl-].[Cl-] [CaCl2, Calcium Chloride]
effect on cell survival, colony formation or proliferation [3]: Less CaCl2 reduced cell proliferation while higher amounts promoted epidermal differentiation

CC(C)CCC[C@@H](C)[C@H]1CC[C@H]2[C@@H]3CC=C4C[C@@H](O)CC[C@]4(C)[C@H]3CC[C@]12C [Cholesterol]
HFSC colony growth ([3]; serum-free media): increase colony growth without compromising reductions in lineage plasticity

C[C@]12CCC(=O)C=C1CC[C@@H]1[C@@H]2[C@@H](O)C[C@@]2(C)[C@H]1CC[C@]2(O)C(=O)CO [Hydrocortisone, hydrocortisone]
effect on cell survival, colony formation or proliferation ([3]; media component testing): not necessary for colony formation or cell proliferation

Cn1c2ccccc2c2c3c(c4c5ccccc5n(CCC#N)c4c21)CNC3=O [PKCi, Go-6976]
Cxcl14 activity [4]: little or no effect on Cxcl14 activity | KLF5 expression [5]: further suppressed KLF5 expression in both basal and suprabasal layers | SOX9 levels [5]: upregulated SOX9 levels | keratin profile (KRT10, KRT6, KRT15) ([5]; listed as G66976): reductions in KRT10 and KRT6; also recorded: upregulation of KRT15 | reduction of Klf5-EGFP levels [6]: most effective at reducing Klf5-EGFP levels | effect on lineage plasticity (Klf5-EGFP levels) [6]: effective at reducing lineage plasticity without affecting proliferation; also recorded: particularly effective agents impacting lineage plasticity | minimum concentration required to achieve maximal effect on lineage plasticity and HFSC fate ([6]; titrated 0.1-10 μM): 1 µM | KRT6 and Ets2 expression [7]: suppressed | resolution of lineage plasticity and HFSC behavior [7]: optimally resolved lineage plasticity and favored HFSC behavior | KLF5 expression ([7]; serum-free conditions): suppressed KLF5 expression

C[C@@H](N)[C@H]1CC[C@H](C(=O)Nc2ccncc2)CC1 [Y-27632]
effect on cell survival, colony formation or proliferation ([3]; media component testing): increase cell survival and CFE

CC1=C(/C=C/C(C)=C/C=C/C(C)=C/C(=O)O)C(C)(C)CCC1 [atRA, all-trans-retinoic acid]
hair production upon engraftment [8]: efficiently produced hair | Tcf7l1 (TCF3) and Tcf7l2 (TCF4) expression [9]: promoted expression | Sox9 and Rspo-mediated Lgr5 upregulation ([9]; compared among physiological vitamin A derivatives): greatest effect on Sox9 and Rspo-mediated Lgr5 upregulation | atRA concentration at which Lgr5 mRNA upregulation and EdU incorporation were optimized ([9]; with Rspo): 100 nM | atRA concentration for greatest cooperative effect on Rspo-mediated HFSC proliferation relative to concentration optimal for quiescence ([9]; with Rspo): 10 fold | bulge HFSC identity (Nfatc1, Cxcl14-EGFP reporter) [4]: dose-dependent boost in bulge HFSC identity, optimal at low concentration | bulge HFSC identity (Nfatc1, Cxcl14-EGFP reporter) ([4]; listed as RA): increased | atRA concentration at which BMP6-mediated Nfatc1 mRNA upregulation was maximal ([4]; with BMP6): 10 nM | KLF5 expression [5]: further suppressed KLF5 expression in both basal and suprabasal layers | SOX9 levels [5]: upregulated SOX9 levels | keratin profile (KRT10, KRT6, KRT15) [5]: reductions in KRT10 and KRT6; also recorded: upregulation of KRT15 | hair cycle (anagen) entry [10]: facilitated hair cycle entry | hair cycle (anagen) entry ([10]; listed as RA): accelerated the onset of anagen entry | HFSC lineage plasticity state during wound repair ([1]; topical after wounding): Fewer HFSCs entered the lineage plasticity state | restoration of skin barrier (transepidermal water loss, TEWL) ([1]; topical after wounding): clear delay in restoring the skin's barrier | HFSC lineage plasticity state during wound repair ([1]; topical after wounding, listed as RA): accelerated lineage plasticity resolution | hair regeneration and HFSC fate in vitamin A-deficient mice ([1]; topical to wound bed, vitamin A-deficient diet): all of these features were rescued | TAC differentiation [11, 12]: prevented TAC differentiation | hair regrowth [11, 12]: prevented hair regrowth | proportion of HOXC13^+ to GATA3^+ cells ([11]; topical, mid-anagen): reduced the relative proportion of HOXC13^+ to GATA3^+ cells | size of the hair bulb ([11]; topical, mid-anagen): substantially reduced the size of the hair bulb overall | reduction of Klf5-EGFP levels [6]: most effective at reducing Klf5-EGFP levels | effect on lineage plasticity (Klf5-EGFP levels) [6]: effective at reducing lineage plasticity without affecting proliferation; also recorded: particularly effective agents impacting lineage plasticity | Nfib and Tbx1 expression [7]: restored Nfib and Tbx1 expression | epidermal markers Sca1 and KRT10 [7]: suppressed epidermal markers | Sox9 mRNA levels ([7]; atRA titrated 10 nM-1 μM): increased Sox9 mRNA levels in a dose-dependent manner | resolution of lineage plasticity and HFSC behavior [7]: optimally resolved lineage plasticity and favored HFSC behavior | KLF5 expression ([7]; serum-free conditions): not as effective in reducing KLF5 | SOX9 population ([7]; serum-free conditions): markedly expanded the SOX9 population

N[C@@H](CCC(=O)N[C@@H](CS)C(=O)NCC(=O)O)C(=O)O [glutathione]
Klf5-EGFP levels [6]: greatest impact when removed

EGF: epidermal growth factor, mitogen
concentration at which maximal rates of cell proliferation were reached [3]: 25 ng/mL

B1: BMP4: bone morphogenetic protein (protein, UniProt P12644 293-408, looked up)
Bone morphogenetic protein 4: SPKHHSQRARKKNKNCRRHSLYVDFSDVGWNDWIVAPPGYQAFYCHGDCPFPLADHLNSTNHAIVQTLVNSVNSSIPKACCVPTELSAISMLYLDEYDKVVLKNYQEMVVEGCGCR
lineages formed ([2]; R-spondins, BMP2 and BMP4 together): directed HFSCs to form the hair shaft and inner root sheath lineages | Cux1 (IRS) and Cux1 (HS) reporter activity ([2]; alongside Rspo): most effective in upregulating reporter activity

B2: FGF10: fibroblast growth factor 10, native HFSC niche mitogen (protein, UniProt O15520 38-208, looked up)
Fibroblast growth factor 10: QALGQDMVSPEATNSSSSSFSSPSSAGRHVRSYNHLQGDVRWRKLFSFTKYFLKIEKNGKVSGTKKENCPYSILEITSVEIGVVAVKAINSNYYLAMNKKGKLYGSKEFNNDCKLKERIEENGYNTYASFNWQHNGRQMYVALNGKGAPRRGQKTRRKNTSAHFLPMVVHS
concentration at which maximal rates of cell proliferation were reached [3]: 10 ng/mL | Klf5-EGFP levels [6]: consistently lower

B3: BMP6: bone morphogenetic protein; promotes HFSC quiescence (protein, UniProt P22004 375-513, looked up)
Bone morphogenetic protein 6: SASSRRRQQSRNRSTQSQDVARVSSASDYNSSELKTACRKHELYVSFQDLGWQDWIIAPKGYAANYCDGECSFPLNAHMNATNHAIVQTLVHLMNPEYVPKPCCAPTKLNAISVLYFDDNSNVILKKYRNMVVRACGCH
hair production upon engraftment [8]: efficiently produced hair | Tcf7l1 (TCF3) and Tcf7l2 (TCF4) expression [9]: stimulated | cell state ([4]; BMP6 with low concentration of atRA (10 nM)): resulted in cell cycle exit and maintained a state resembling quiescence | cell cycle exit / quiescence (Nfatc1 expression, Cxcl14 promoter reporter) ([4]; compared among BMPs): most potent effect
